From ChEMBL document CHEMBL1201862, “PubChem BioAssay data set” (2004) come the findings set out here.

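Values below derive from 48-hour exposures of cells grown in 96-well plates, with endpoints linearly interpolated between the two concentrations bracketing the appropriate inhibition level. The concentration for 50% growth inhibition is given as GI50.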 Activity calls are given as the source filed them. Rule as the data show it: active = GI50 up to about 1.1 µM and inactive = higher. A value given as a limit tells only on which side of the number the result lay.

Some test systems named below: K562; NCI-H23; SK-MEL-5; SK-OV-3; COLO 205; HCT-15; HCC 2998; SF-295; RXF 393; RPMI-8226; Malme-3M; KM12; ACHN; IGROV-1; SF-539; EKVX; SR.
Test in all cases: growth of human tumour cells (NCI), 48 h

For `COC(=O)c1nc(N)nc(O)c1CCCCCc1c(O)nc(N)nc1C(=O)OC`, the GI50 with K562 is > 50 µM (inactive); in the test on NCI-H23 it was > 50 µM (inactive); with SK-MEL-5, > 50 µM (inactive); in the test on SK-OV-3 it was > 50 µM (inactive); in the test with COLO 205, > 50 µM (inactive); in the test with HCT-15, more than 50 µM. The GI50 in the test with HCC 2998, in the test on SF-295, in the test with RXF 393, in the test on RPMI-8226, in the test with Malme-3M and with KM12 was > 50 µM (inactive) throughout. The GI50 in the test on ACHN, in the test on IGROV-1, in the test with SF-539 and in the test on EKVX was > 50 µM (inactive) throughout.

In the case of `CCn1c2ccccc2c2ccc3c(c21)C(=O)C=CC3=O`, the GI50 was 2.29 µM (inactive) in the test with K562; 22.5 µM (inactive) with NCI-H23; < 0.01 µM (active) in the test on SK-MEL-5; 18.6 µM (inactive) with SK-OV-3; 9.55 µM (inactive) in the test on COLO 205; 10.4 µM with HCT-15. For the same molecule, the GI50 with HCC 2998 was 20.9 µM (inactive); with SF-295, 20.4 µM (inactive); in the test with RPMI-8226, 10.3 µM (inactive); with Malme-3M, 9.86 µM (inactive); in the test on KM12 it was 14.4 µM (inactive); with ACHN, 16.5 µM (inactive). The GI50 in the test with IGROV-1 was 1.39 µM (inactive); with SF-539, 26.2 µM (inactive); in the test on EKVX, 12.1 µM (inactive).

Regarding `C[C@]12CCC3[C@@H](CC[C@@H]4c5nonc5CC[C@]34C)C1C/C(=N/O)C2=O` (some centres not stated), the GI50 was > 100 µM (inactive) with K562; > 100 µM (inactive) in the test on NCI-H23; > 100 µM (inactive) in the test on SK-MEL-5; 38.8 µM (inactive) in the test on SK-OV-3; > 100 µM (inactive) with COLO 205; more than 100 µM in the test with HCT-15. In addition, the GI50 in the test on SF-295 was 52.2 µM (inactive); with RXF 393 it was 14.1 µM (inactive); in the test on RPMI-8226, 9.48 µM (inactive); with Malme-3M, > 100 µM (inactive); in the test with KM12 it was > 100 µM (inactive); in the test on ACHN it was 41 µM (inactive). In addition, the GI50 was > 100 µM (inactive) in the test with IGROV-1, 71 µM (inactive) in the test on SF-539 and 52.5 µM (inactive) in the test on EKVX.

For `CCN(CC)c1c(C(=O)/C=C/c2ccc(F)cc2)c(-c2ccccc2)nn(C)c1=O`, the GI50 in the test on K562 is 12.4 µM (inactive); with NCI-H23, 4.12 µM (inactive); with SK-MEL-5, 8.89 µM (inactive); with SK-OV-3, 11.9 µM (inactive); with COLO 205 it was 4.25 µM (inactive); in the test with HCT-15 it was 10.4 µM. The GI50 is 3.3 µM (inactive) with HCC 2998; 12.2 µM (inactive) in the test on SF-295; 3.13 µM (inactive) with RXF 393; 2.94 µM (inactive) with RPMI-8226; 13.3 µM (inactive) with Malme-3M; 4.85 µM (inactive) in the test on KM12. Also, the GI50 in the test with ACHN was 6.9 µM (inactive); with IGROV-1, 5.98 µM (inactive); in the test on EKVX it was 13.8 µM (inactive).

In the case of `COC(OC)c1cccnc1C`, the GI50 in the test with K562 is > 100 µM (inactive); in the test with NCI-H23, > 100 µM (inactive); in the test on SK-MEL-5 it was > 100 µM (inactive); in the test with SK-OV-3 it was > 100 µM (inactive); in the test on COLO 205 it was > 100 µM (inactive); in the test on HCT-15 it was more than 100 µM. Moreover, the GI50 with SF-295, with SR, in the test with RXF 393, in the test with Malme-3M, in the test with KM12 and in the test with ACHN was > 100 µM (inactive) throughout. Also, the GI50 with IGROV-1, in the test with SF-539 and in the test with EKVX was > 100 µM (inactive) in each case.

On to `C/C(CC(=O)Nc1cc(Cl)c(Cl)cc1Cl)=N\NS(=O)(=O)c1ccc(C)cc1`, for which the GI50 is 35.5 µM (inactive) in the test on K562; 21.6 µM (inactive) in the test on NCI-H23; 38.3 µM (inactive) in the test with SK-MEL-5; 53.7 µM (inactive) in the test on SK-OV-3; 26.8 µM (inactive) in the test with COLO 205; 35.3 µM (inactive) in the test with HCC 2998. The GI50 in the test on SF-295 is 37.1 µM (inactive); in the test with RXF 393 it was 24.9 µM (inactive); in the test with RPMI-8226, 27.4 µM (inactive); in the test on Malme-3M it was 31.2 µM (inactive); in the test on KM12, 40.3 µM (inactive); with ACHN, 25.1 µM (inactive). Besides, the figures for the GI50 in the test with IGROV-1, with SF-539 and in the test with EKVX were 37.4 µM (inactive), 30.5 µM (inactive) and 35.3 µM (inactive), respectively.

In the case of `CON(C)C(=O)CCCO`, the GI50 is > 100 µM (inactive) in the test on K562; > 100 µM (inactive) with NCI-H23; > 100 µM (inactive) in the test with SK-MEL-5; > 10 µM (inactive) in the test with SK-OV-3; > 100 µM (inactive) with COLO 205; more than 100 µM with HCT-15. In addition, the GI50 in the test with SF-295, with SR, with RXF 393, in the test on RPMI-8226, in the test with Malme-3M and with KM12 was > 100 µM (inactive) each time. The GI50 with ACHN, in the test with IGROV-1, with SF-539 and in the test on EKVX was > 100 µM (inactive) in each case.

On to `c1ccc2c(NCCCCCCNc3cccc4ccccc34)cccc2c1`, for which the GI50 in the test on K562 was > 100 µM (inactive); in the test on NCI-H23 it was 75.3 µM (inactive); in the test with SK-MEL-5 it was 60.3 µM (inactive); in the test with SK-OV-3, > 100 µM (inactive); in the test on COLO 205, > 100 µM (inactive); with HCT-15, more than 100 µM. Further, the GI50 is > 100 µM (inactive) in the test with HCC 2998; > 100 µM (inactive) with SF-295; 87.3 µM (inactive) with RPMI-8226; > 100 µM (inactive) in the test with Malme-3M; > 100 µM (inactive) in the test with KM12; > 100 µM (inactive) in the test on ACHN. The GI50 with IGROV-1, in the test with SF-539 and with EKVX was > 100 µM (inactive) each time.

As to `COc1ccc(C(=O)O[C@H]2[C@@H]3C=CO[C@@H](OC4OC(CO)C(O)C(O)C4O)[C@@H]3[C@@]3(CO)O[C@@H]23)cc1O` (some centres not stated), the GI50 in the test with K562, with NCI-H23, in the test on SK-MEL-5, in the test with SK-OV-3, with COLO 205 and in the test with HCC 2998 was > 100 µM (inactive) throughout. Further, the GI50 in the test on SF-295, in the test on RXF 393, in the test on RPMI-8226, in the test with Malme-3M, in the test on KM12 and with ACHN was > 100 µM (inactive) each time. The GI50 in the test with IGROV-1, in the test on SF-539 and in the test on EKVX was > 100 µM (inactive) throughout.

In the case of `O=C(Nc1ccccc1-c1nc2ccccc2[nH]c1=O)c1ccccc1`, the GI50 was > 100 µM (inactive) with K562; 33.7 µM (inactive) in the test on NCI-H23; 32.6 µM (inactive) in the test on SK-MEL-5; 20.3 µM (inactive) with SK-OV-3; > 100 µM (inactive) in the test with COLO 205; 35.2 µM in the test on HCT-15. The GI50 is 15.4 µM (inactive) with HCC 2998; 20.9 µM (inactive) in the test on SF-295; 21.2 µM (inactive) in the test with RXF 393; 21.8 µM (inactive) with RPMI-8226; 32.1 µM (inactive) in the test on Malme-3M; 28.7 µM (inactive) with KM12. Further, the GI50 in the test with ACHN was 20.1 µM (inactive); with IGROV-1, 26.4 µM (inactive); with SF-539 it was 20.6 µM (inactive); in the test with EKVX it was 25.3 µM (inactive).

On to `C=CCC1C(=O)CC2(C)C(CC=C)C(=O)CC12C` (configuration not stated), for which the GI50 in the test with K562 was > 100 µM (inactive); with NCI-H23, > 100 µM (inactive); in the test on SK-MEL-5, > 100 µM (inactive); with SK-OV-3, > 100 µM (inactive); in the test on COLO 205 it was > 100 µM (inactive); in the test on HCT-15, more than 100 µM. For the same molecule, the GI50 in the test on HCC 2998, in the test on SF-295, with SR, in the test on RPMI-8226, in the test with Malme-3M and in the test with KM12 was > 100 µM (inactive) in each case. Besides, the GI50 with ACHN, in the test on IGROV-1, in the test with SF-539 and in the test with EKVX was > 100 µM (inactive) in each case.

With `O=Cc1c(O)ccc2ccc(O)c(-c3c(O)ccc4ccc(O)cc34)c12`, the GI50 is > 100 µM (inactive) in the test on K562; > 100 µM (inactive) in the test on NCI-H23; > 100 µM (inactive) with SK-MEL-5; > 100 µM (inactive) in the test with SK-OV-3; > 100 µM (inactive) in the test with COLO 205; more than 100 µM with HCT-15. Besides, the GI50 is 53.1 µM (inactive) in the test on SF-295; 67.9 µM (inactive) in the test with SR; 44.4 µM (inactive) in the test with RXF 393; > 100 µM (inactive) in the test on RPMI-8226; 37.5 µM (inactive) in the test with Malme-3M; 98.4 µM (inactive) in the test with KM12. For the same molecule, the GI50 with ACHN is > 100 µM (inactive); in the test on IGROV-1, > 100 µM (inactive); in the test on SF-539 it was 52.7 µM (inactive).

For `Cc1c(O)c(=O)ccn1C1OC(CO)C(O)C1O` (configuration not stated), the GI50 is 50.4 µM (inactive) with K562; > 100 µM (inactive) with SK-MEL-5; > 100 µM (inactive) with SK-OV-3; > 100 µM (inactive) in the test with COLO 205; 68.1 µM with HCT-15; > 100 µM (inactive) in the test on SF-295. Further, the GI50 in the test with SR, with RXF 393, in the test with RPMI-8226, in the test with Malme-3M, in the test with KM12 and in the test on ACHN was > 100 µM (inactive) each time. Also, in the test with EKVX, the GI50 is > 100 µM (inactive).
